Reference: PMC9951879, “Synthesis of New Shogaol Analogues as NRF2 Activators and Evaluation of Their Anti-Inflammatory Activity, Modes of Action and Metabolic Stability” (Antioxidants, 2023)

How the values were obtained:
Assay type in all cases: cell-based, mouse
[1] = test system: NQO1; assay: qPCR gene expression in Hepa1c1c-7 cells: NQO1; conditions: 1 μM, 48 h, Hepa-1c1c7 cells
Method: (§1) Hepa1c1c-7 cells were treated with STCs (1 μM) for 48 h, and the total RNA was isolated using QIAzol®lysis reagent (Qiagen, Germany). Next, cDNA was synthesised using the ReverTra Ace® qPCR RT Master Mix Kit (Toyobo Research Reagents, Osaka, Japan). Quantitative PCR was performed using THUNDERBIRD^TM Next SYBR® qPCR Mix (Toyobo Research Reagents, Osaka, Japan) in CFX96 Touch Real-Time PCR Detection System (Bio-Rad Laboratories, San Jose, CA, USA). The genes tested and the respective primers (purchased from Integrated DNA Technologies, Coralville, IA, USA) used in the study are shown in Table 1. β-actin was used as a reference gene for the normalisation of target gene expression. The 2^−ΔΔCt method was used to measure the relative expression of target genes.

[2] = test system: PRDX1; assay: qPCR gene expression in Hepa1c1c-7 cells: PRDX1; conditions: 1 μM, 48 h, Hepa-1c1c7 cells
Method: as §1

[3] = test system: GPX2; assay: qPCR gene expression in Hepa1c1c-7 cells: GPX2; conditions: 1 μM, 48 h, Hepa-1c1c7 cells
Method: as §1

[4] = test system: G6PDX; assay: qPCR gene expression in Hepa1c1c-7 cells: G6PDX; conditions: 1 μM, 48 h, Hepa-1c1c7 cells
Method: as §1

[5] = test system: free thiol content in NRF2-proficient BV-2 cells; assay: Thiol quantification assay in BV-2 cells
Method: The anti-inflammatory activity of the STCs was determined in E. coli lipopolysaccharide (LPSEc; Sigma Aldrich, USA)-induced inflammation in NRF2-proficient and NRF2 siRNA-transfected mouse microglial (BV-2) cells. The NRF2 was silenced in BV-2 cells using NRF2 siRNA (Santa Cruz Biotechnology, Dallas, TX, USA) in Opti-MEM transfection medium (Thermo Fisher Scientific, USA) using Lipofectamine^TM LTX reagent with PLUS^TM reagent (Thermo Fisher Scientific, USA) following the manufacturer’s protocol and reported method. The cells (5 × 10^5 cells/well) were allowed to form a monolayer by incubating them for 24 h and then adding LPSEc (200 ng/mL) for 4 h. […] The nitric oxide (NO) level in cell supernatant was determined using the Griess reagent kit (Thermo Fisher Scientific, USA). The levels of proinflammatory cytokines (IL-1β, IL-6, IFN-γ, and TNF-α) in cell supernatant solutions were determined using commercially available ELISA kits (Abcam, Cambridge, UK). […] The protein concentration was determined using Bradford’s assay kit (Thermo Fisher Scientific, USA) following the manufacturer’s instructions. The expression of COX-2, NF-κB p65, NRF2, and HO-1 in cell lysates was determined using commercially available ELISA kits (Abcam, St, Louis, Missouri, USA) following the manufacturer’s protocol. In addition, the thiol content was determined using a thiol quantification assay kit (Abcam, USA).

| Compound | NQO1 gene expression foldchange (compared to control) [1] | PRDX1 gene expression foldchange (compared to control) [2] | GPX2 gene expression foldchange (compared to control) [3] | G6PDX gene expression foldchange (compared to control) [4] | reactivity with thiols lower than that of 6-shogaol ([5]; versus 6-shogaol) | free thiol content ([5]; NRF2-proficient BV-2 cells, untreated cells = 100%) |
| --- | --- | --- | --- | --- | --- | --- |
| COc1cc(CCC(=O)/C=C/c2cc(-c3ccccc3)cs2)ccc1O [STC5, (E)-5-(4-Hydroxy-3-methoxyphenyl)-1-(4-phenylthiophen-2-yl)pent-1-en-3-one] | 2.94 ± 0.01 | 3.04 ± 0.09 | 3.25 ± 0.11 | 3.83 ± 0.02 | about 70% | – |
| CCCCC/C=C/C(=O)CCc1ccc(O)c(OC)c1 [6-shogaol, reference compound] | 1.20 ± 0.06 | 1.37 ± 0.07 | 1.63 ± 0.06 | 2.27 ± 0.03 | – | 35.03 ± 3.70% |
